Here are results for 33 molecules from US10752615B2, “Spirocyclic containing compounds and pharmaceutical uses thereof” (GB005, Inc., priority 2016, dated 2020).

Molecules are shown by their SMILES.

In one assay the target is BTK (Homo sapiens (Human), UniProt Q06187). Kind of assay: Kinase inhibition assay (Nanosyn, microfluidic detection), BTK. The following applies: 1 mM ATP, 3 hours at 25° C. In kind it is biochemical. How it is done:
(§1) The in vitro kinase assays were performed at Nanosyn (Santa Clara, Calif.) utilizing microfluidic detection technology. The test compounds were serially pre-diluted in DMSO and added, by the acoustic dispensing (Labcyte® 550), directly to 384 well assay plates into 10 uL of a buffer with enzyme (ITK, TXK, BTK or TEC) comprising: 100 mM HEPES, pH7.5, 5 mM MgCl2, 0.1% bovine serum albumin, 1 mM DTT, 0.01% Triton X-100 and the enzyme. Final DMSO concentration was maintained at 1% in all samples, including the controls. The reactions were initiated by addition of ATP (1 mM final concentration) and the fluorescently labeled peptide substrate to a final concentration of 1 uM, and incubated for 3 hours at 25° C. Following incubation, the reactions were quenched by addition of 40 μL of termination buffer (100 mM HEPES, pH7.5, 0.01% Triton X-100, 50 mM EDTA). Terminated plates were analyzed using Caliper LabChip® 3000 microfluidic electrophoresis instrument (Caliper Life Sciences/Perkin Elmer). The enzymatic modification of the peptide substrate (phosphorylation) results in a change of net charge enabling electrophoretic separation of product from substrate. As substrate and product are separated by electrophoresis, two peaks of fluorescence are observed. Change in the relative fluorescence intensity of the substrate and product peaks was the parameter measured, reflecting enzyme activity. In the presence of inhibitor, the ratio between product and substrate is altered: signal of the product decreases, while the signal of the substrate increases. Activity in each test sample was determined as the product to sum ratio (PSR): P/(S+P), where P is the peak height of the product and S is the peak height of the […]. For each compound, enzyme activity was measured at 12 concentrations spaced by 3× dilution intervals. Negative control samples (0%-inhibition in the absence of inhibitor, DMSO only) and positive control samples (100%-inhibition, in the absence of enzyme or in the presence of control inhibitor) were assembled in replicates of four and were used to calculate %-inhibition values in the presence of compounds. Percent inhibition (Pinh) was determined using the following equation: Pinh=(PSR0%−PSRinh)/(PSR0%−PSR100%)*100, where PSRinh is the product sum ratio in the presence of inhibitor, PSR0% is the product sum ratio in the absence of inhibitor and PSR100% is the product sum ratio in 100%-inhibition control samples. To determine IC50 values, the inhibition curves (Pinh versus inhibitor concentration) were fitted by 4 parameter sigmoid dose-response model using XLfit software (IDBS).

The next assay deals with TXK (Homo sapiens (Human), UniProt P42681). Briefly: Kinase inhibition assay (Nanosyn, microfluidic detection), TXK. It is filed as biochemical. The settings on record: 1 mM ATP, 3 hours at 25° C. As to the method:
as §1, with “The enzymatic modification of the peptide substrate (phosphorylation) results in a change of net charge enabling electrophoretic separation of product from substrate.” left out

Chain of BTK (Q06187 whole entry): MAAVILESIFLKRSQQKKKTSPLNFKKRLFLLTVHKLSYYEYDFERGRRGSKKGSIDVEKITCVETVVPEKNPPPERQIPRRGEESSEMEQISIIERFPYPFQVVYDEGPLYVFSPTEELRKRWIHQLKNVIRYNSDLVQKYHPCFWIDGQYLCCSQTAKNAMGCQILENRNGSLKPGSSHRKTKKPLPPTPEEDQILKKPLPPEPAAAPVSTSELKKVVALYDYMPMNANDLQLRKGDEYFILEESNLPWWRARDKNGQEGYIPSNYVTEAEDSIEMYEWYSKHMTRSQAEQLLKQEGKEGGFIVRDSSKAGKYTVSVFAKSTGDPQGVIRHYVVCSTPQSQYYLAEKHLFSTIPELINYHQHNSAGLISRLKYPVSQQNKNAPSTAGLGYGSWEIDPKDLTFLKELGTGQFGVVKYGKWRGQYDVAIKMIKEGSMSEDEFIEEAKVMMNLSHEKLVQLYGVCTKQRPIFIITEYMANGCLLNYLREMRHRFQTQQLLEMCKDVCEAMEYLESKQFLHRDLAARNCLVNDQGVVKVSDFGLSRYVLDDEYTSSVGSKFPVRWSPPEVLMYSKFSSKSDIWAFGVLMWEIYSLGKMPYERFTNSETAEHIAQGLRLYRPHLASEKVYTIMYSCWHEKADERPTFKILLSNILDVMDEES
Chain of TXK (P42681 whole entry): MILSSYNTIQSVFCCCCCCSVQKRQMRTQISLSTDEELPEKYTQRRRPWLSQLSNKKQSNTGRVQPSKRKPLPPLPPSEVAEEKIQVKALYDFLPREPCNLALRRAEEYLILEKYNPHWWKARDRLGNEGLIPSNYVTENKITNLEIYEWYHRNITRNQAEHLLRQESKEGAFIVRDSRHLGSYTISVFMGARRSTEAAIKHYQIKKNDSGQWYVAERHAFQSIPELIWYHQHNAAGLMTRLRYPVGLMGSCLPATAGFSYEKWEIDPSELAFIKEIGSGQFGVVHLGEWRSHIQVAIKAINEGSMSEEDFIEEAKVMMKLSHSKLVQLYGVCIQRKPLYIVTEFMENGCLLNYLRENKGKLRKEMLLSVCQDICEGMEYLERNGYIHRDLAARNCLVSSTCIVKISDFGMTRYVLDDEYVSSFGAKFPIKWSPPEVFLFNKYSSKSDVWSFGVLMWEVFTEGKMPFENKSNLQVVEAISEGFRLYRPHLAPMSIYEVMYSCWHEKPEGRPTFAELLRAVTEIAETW

For `C=CC(=O)N1CC[C@]2(C1)C[C@@H](n1c(NC(=O)c3ccc(-c4cnco4)s3)nc3c(F)cccc31)C2` [Compound 67], the IC50 against BTK was determined as 99.2 nM; against TXK it was 19.7 nM.

Take `C=CC(=O)N1CC[C@]2(C1)C[C@H](n1c(NC(=O)c3ccno3)nc3cc(CN[C@@H](C)C(C)(C)C)ccc31)C2` [Compound 21]: the IC50 at BTK was found to be 1.54 nM; on TXK it was 1.22 nM.

As to `C=CC(=O)N1CC[C@]2(C1)C[C@H](n1c(NC(=O)c3cnco3)nc3cc(CN[C@@H](C)C(C)(C)C)ccc31)C2` [Compound 6], the IC50 against BTK worked out at 4.28 nM; against TXK, 2.86 nM.

With `C=CC(=O)N1CC[C@]2(C1)C[C@H](n1c(NC(=O)c3ccc(-c4ccnc(CO)c4)s3)nc3ccccc31)C2` [Compound 146], the half-maximal inhibitory concentration (IC50) worked out at 0.57 nM at BTK and 0.22 nM against TXK.

For `C=CC(=O)N1CC[C@]2(C1)C[C@H](n1c(NC(=O)c3ccnn3C)nc3cc(CN[C@@H](C)C(C)(C)C)ccc31)C2` [Compound 14], the IC50 against BTK worked out at 23.4 nM; against TXK, 3.9 nM.

In the case of `C=CC(=O)N1CC[C@]2(C1)C[C@H](n1c(NC(=O)c3ccc(-c4ccnc(C)c4)s3)nc3ccccc31)C2` [Compound 147], the IC50 at BTK stood at 0.41 nM; against TXK, 0.21 nM.

Consider `C#Cc1ccc(C(=O)Nc2nc3ccccc3n2[C@H]2C[C@@]3(CCN(C(=O)C=C)C3)C2)s1` [Compound 107], for which the values for the IC50 against BTK and on TXK were 21.1 nM and 5.25 nM, respectively.

As for `C=CC(=O)N1CC[C@]2(C1)C[C@H](n1c(NC(=O)c3ccc(-c4cccc(NC)n4)s3)nc3ccccc31)C2` [Compound 139], the results for the IC50 against BTK and against TXK were 1.54 nM and 0.75 nM, respectively.

Consider `C=CC(=O)N1CC[C@]2(C1)C[C@H](n1c(NC(=O)c3ccc(-c4c[nH]nc4C)s3)nc3ccccc31)C2` [Compound 156], for which the IC50 at BTK turned out to be 0.7 nM; against TXK, 0.24 nM.

Regarding `C=CC(=O)N1CC[C@]2(C1)C[C@H](n1c(NC(=O)c3ccc(-c4cnco4)s3)nc3cc(N(C)C(=O)C4CCCCC4)ccc31)C2` [Compound 60], the IC50 was found to be 1.15 nM against BTK and 0.4 nM against TXK.

Take `C=CC(=O)N1CC[C@]2(C1)C[C@H](n1c(NC(=O)c3ccc(-c4cncc(NC)n4)s3)nc3ccccc31)C2` [Compound 140]: the values for the IC50 at BTK and against TXK were 0.54 nM and 0.2 nM, respectively.

As to `C=CC(=O)N1CC[C@]2(C1)C[C@H](n1c(NC(=O)c3cccs3)nc3ccccc31)C2` [Compound 82], the values for the IC50 at BTK and against TXK were 33.2 nM and 3.33 nM, respectively.

Regarding `C=CC(=O)N1CC[C@]2(C1)C[C@H](n1c(NC(=O)c3ccc(-c4cccnn4)s3)nc3ccccc31)C2` [Compound 76], the results for the IC50 against BTK and against TXK were 22.6 nM and 2.8 nM, respectively.

Turning to `C=CC(=O)N1CC[C@]2(C1)C[C@H](n1c(NC(=O)c3ccc(C#N)cc3)nc3ccccc31)C2` [Compound 48], the IC50 on BTK amounted to 4.37 nM; against TXK it was 1.16 nM.

In the case of `C=CC(=O)N1CC[C@]2(C1)C[C@H](n1c(NC(=O)c3cc(C)cs3)nc3ccccc31)C2` [Compound 79], the IC50 against BTK amounted to 251 nM; on TXK it was 17 nM.

Consider `C=CC(=O)N1CC[C@]2(C1)C[C@H](n1c(NC(=O)c3ccc(-c4ccc(CO)nc4)s3)nc3ccccc31)C2` [Compound 144], for which the IC50 was determined as 3.45 nM against BTK and 1.51 nM against TXK.

On to `C=CC(=O)N1CC[C@]2(C1)C[C@H](n1c(NC(=O)c3ccc(-c4cnco4)s3)nc3cc(CN[C@H]4C[C@H](O)C4)ccc31)C2` [Compound 43], for which the figures for the IC50 on BTK and against TXK were 0.53 nM and 0.32 nM, respectively.

In the case of `C=CC(=O)N1CC[C@]2(C1)C[C@H](n1c(NC(=O)c3ccc(-c4ccc(OC)nc4)s3)nc3ccccc31)C2` [Compound 95], the figures for the IC50 at BTK and at TXK were 19.4 nM and 9.12 nM, respectively.

`C=CC(=O)N1CC[C@]2(C1)C[C@H](n1c(NC(=O)c3cccc(-c4cnco4)c3)nc3ccccc31)C2` [Compound 49]: the IC50 against BTK was 13.7 nM; against TXK, 1.39 nM.

With `C=CC(=O)N1CC[C@]2(C1)C[C@H](n1c(NC(=O)c3ccc(-n4cccn4)s3)nc3ccccc31)C2` [Compound 89], the IC50 was determined as 23.7 nM at BTK and 3.17 nM on TXK.

With `C=CC(=O)N1CC[C@]2(C1)C[C@H](n1c(NC(=O)c3ccc(-c4cncn4C)s3)nc3ccccc31)C2` [Compound 123], the IC50 was 5.33 nM against BTK and 0.49 nM against TXK.

In the case of `C=CC(=O)N1CC[C@]2(C1)C[C@H](n1c(NC(=O)c3ccc(Oc4ccccc4)nc3)nc3ccccc31)C2` [Compound 66], the IC50 against BTK stood at 11.2 nM; against TXK it was 4.34 nM.

Consider `C=CC(=O)N1CC[C@]2(C1)C[C@H](n1c(NC(=O)c3ccc(-c4cnco4)s3)nc3cc(CN4CCCC4)ccc31)C2` [Compound 40], for which the IC50 came to 1.16 nM on BTK and 0.72 nM against TXK.

Take `C=CC(=O)N1CC[C@]2(C1)C[C@H](n1c(NC(=O)c3ccc(OC)nc3)nc3cc(CN[C@@H](C)C(C)(C)C)ccc31)C2` [Compound 32]: the IC50 at BTK was 5.45 nM; against TXK, 0.7 nM.

Turning to `C=CC(=O)N1CC[C@]2(C1)C[C@H](n1c(NC(=O)c3ccc(C)nc3)nc3ccccc31)C2` [Compound 47], the IC50 on BTK turned out to be 11.3 nM; at TXK it was 2.69 nM.

As for `C=CC(=O)N1CC[C@]2(C1)C[C@H](n1c(NC(=O)c3ccn(C)c(=O)c3)nc3ccccc31)C2` [Compound 84], the IC50 against BTK worked out at 65.3 nM; against TXK, 19.8 nM.

For the molecule `C=CC(=O)N1CC[C@]2(C1)C[C@H](n1c(NC(=O)c3ccc(-c4ccnn4C)s3)nc3ccccc31)C2` [Compound 75], the values for the IC50 at BTK and on TXK were 1.03 nM and 0.12 nM, respectively.

In the case of `C=CC(=O)N1CC[C@]2(C1)C[C@H](n1c(NC(=O)c3ccc(C(=O)NCC)s3)nc3ccccc31)C2` [Compound 101], the IC50 against BTK worked out at 9.24 nM; against TXK it was 0.93 nM.

As for `C=CC(=O)N1CC[C@]2(C1)C[C@H](n1c(NC(=O)c3ccc(-c4cnco4)s3)nc3ccc(Cl)cc31)C2` [Compound 65], the results for the IC50 on BTK and at TXK were 1.99 nM and 0.42 nM, respectively.

On to `C=CC(=O)N1CC[C@]2(C1)C[C@H](n1c(NC(=O)c3ccc(-c4ccnnc4)s3)nc3ccccc31)C2` [Compound 114], for which the IC50 at BTK was determined as 3.31 nM; against TXK, 0.22 nM.

With `C=CC(=O)N1CC[C@]2(C1)C[C@H](n1c(NC(=O)c3ccc(-c4cnco4)s3)nc3cc(N(C)C(=O)[C@H](C)N4CCOCC4)ccc31)C2` [Compound 59], the values for the IC50 against BTK and against TXK were 1.64 nM and 0.44 nM, respectively.

For `C=CC(=O)N1CC[C@]2(C1)C[C@H](n1c(NC(=O)c3ccns3)nc3ccccc31)C2` [Compound 46], the IC50 at BTK turned out to be 1.44 nM; on TXK, 1.1 nM.

As to `C=CC(=O)N1CC[C@]2(C1)C[C@H](n1c(NC(=O)c3ccc(-c4cnco4)s3)nc3cc(N(C)C(=O)C4CC4)ccc31)C2` [Compound 52], the IC50 at BTK stood at 0.58 nM; on TXK it was 0.39 nM.

Broadly, the IC50 is the midpoint of a concentration-inhibition curve. Higher therefore signals a need for much substance.
